According to US8912329B2 (priority 2009, dated 2014):

What was measured:
[1] = test system: Mycobacterium tuberculosis laboratory strain H37Rv; assay: Growth inhibition / drug susceptibility testing of M. tuberculosis with MGIT 960 system, compounds combined with ethionamide; assay type: cell-based; parameters: key to growth inhibition of M. tuberculosis H37Rv (R/I/S): R: Resistance, no effect of combinatorial drug application; I: intermediate; S: sensitive; conditions: for growth inhibitory effect of compound alone on M. tuberculosis H37Rv: without ethionamide; for growth of M. tuberculosis H37Rv in the presence of sub-inhibitory ethionamide concentrations: ethionamide 0.16 and 5 μg/ml, 0.5 to 40.5 μMol compound
EthR-VP16 = EthR-VP16 (Mycobacterium bovis, UniProt Q7TVI1); assay: cell-based; parameters: species or system M. bovis; conditions: 48 h, read-out: % EthR activity (w/o = 100%); ± std. dev. of the mean (n = 3)
EthR-VP16, sequence (Q7TVI1 whole entry, looked up): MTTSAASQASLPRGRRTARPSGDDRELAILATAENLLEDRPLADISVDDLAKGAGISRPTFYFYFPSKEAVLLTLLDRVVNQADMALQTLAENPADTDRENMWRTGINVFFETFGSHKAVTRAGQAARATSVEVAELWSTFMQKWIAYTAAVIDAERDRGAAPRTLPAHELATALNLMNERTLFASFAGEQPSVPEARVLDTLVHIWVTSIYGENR

[2] = Example compound 0.5 μM + ethionamide 0.16 μg/ml
[3] = Example compound 0.5 μM + ethionamide 0.31 μg/ml
[4] = Example compound 0.5 μM + ethionamide 0.625 μg/ml
[5] = Example compound 0.5 μM + ethionamide 1.25 μg/ml
[6] = Example compound 0.5 μM + ethionamide 2.5 μg/ml
[7] = Example compound 0.5 μM + ethionamide 5 μg/ml
[8] = Example compound 0.5 μM, ethionamide 0 μg/ml
[9] = Example compound 1.5 μM + ethionamide 0.16 μg/ml
[10] = Example compound 1.5 μM + ethionamide 0.31 μg/ml
[11] = Example compound 1.5 μM + ethionamide 0.625 μg/ml
[12] = Example compound 1.5 μM + ethionamide 1.25 μg/ml
[13] = Example compound 1.5 μM + ethionamide 2.5 μg/ml
[14] = Example compound 1.5 μM + ethionamide 5 μg/ml
[15] = Example compound 1.5 μM, ethionamide 0 μg/ml
[16] = Example compound 4.5 μM + ethionamide 0.16 μg/ml
[17] = Example compound 4.5 μM + ethionamide 0.31 μg/ml
[18] = Example compound 4.5 μM + ethionamide 0.625 μg/ml
[19] = Example compound 4.5 μM + ethionamide 1.25 μg/ml
[20] = Example compound 4.5 μM + ethionamide 2.5 μg/ml
[21] = Example compound 4.5 μM + ethionamide 5 μg/ml
[22] = Example compound 4.5 μM, ethionamide 0 μg/ml
[23] = Example compound 13.5 μM + ethionamide 0.16 μg/ml
[24] = Example compound 13.5 μM + ethionamide 0.31 μg/ml
[25] = Example compound 13.5 μM + ethionamide 0.625 μg/ml
[26] = Example compound 13.5 μM + ethionamide 1.25 μg/ml
[27] = Example compound 13.5 μM + ethionamide 2.5 μg/ml
[28] = Example compound 13.5 μM + ethionamide 5 μg/ml
[29] = Example compound 13.5 μM, ethionamide 0 μg/ml
[30] = Example compound 40.5 μM + ethionamide 0.16 μg/ml
[31] = Example compound 40.5 μM + ethionamide 0.31 μg/ml
[32] = Example compound 40.5 μM + ethionamide 0.625 μg/ml
[33] = Example compound 40.5 μM + ethionamide 1.25 μg/ml
[34] = Example compound 40.5 μM + ethionamide 2.5 μg/ml
[35] = Example compound 40.5 μM + ethionamide 5 μg/ml
[36] = Example compound 40.5 μM, ethionamide 0 μg/ml

SMILES: O=C(CCc1ccccc1)N1CCC(c2ccccc2)C1 (stereo not drawn) [Example 16, 3-Phenyl-1-(3-phenylpyrrolidin-1-yl)propan-1-one]
- growth inhibition of M. tuberculosis H37Rv (R/I/S) [1, 2]: R
- growth inhibition of M. tuberculosis H37Rv (R/I/S) [1, 3]: R
- growth inhibition of M. tuberculosis H37Rv (R/I/S) [1, 4]: I
- growth inhibition of M. tuberculosis H37Rv (R/I/S) [1, 5]: S
- growth inhibition of M. tuberculosis H37Rv (R/I/S) [1, 6]: S
- growth inhibition of M. tuberculosis H37Rv (R/I/S) [1, 7]: S
- growth inhibition of M. tuberculosis H37Rv (R/I/S) [1, 8]: R
- growth inhibition of M. tuberculosis H37Rv (R/I/S) [1, 9]: R
- growth inhibition of M. tuberculosis H37Rv (R/I/S) [1, 10]: I
- growth inhibition of M. tuberculosis H37Rv (R/I/S) [1, 11]: S
- growth inhibition of M. tuberculosis H37Rv (R/I/S) [1, 12]: S
- growth inhibition of M. tuberculosis H37Rv (R/I/S) [1, 13]: S
- growth inhibition of M. tuberculosis H37Rv (R/I/S) [1, 14]: S
- growth inhibition of M. tuberculosis H37Rv (R/I/S) [1, 15]: R
- growth inhibition of M. tuberculosis H37Rv (R/I/S) [1, 16]: R
- growth inhibition of M. tuberculosis H37Rv (R/I/S) [1, 17]: I
- growth inhibition of M. tuberculosis H37Rv (R/I/S) [1, 18]: S
- growth inhibition of M. tuberculosis H37Rv (R/I/S) [1, 19]: S
- growth inhibition of M. tuberculosis H37Rv (R/I/S) [1, 20]: S
- growth inhibition of M. tuberculosis H37Rv (R/I/S) [1, 21]: S
- growth inhibition of M. tuberculosis H37Rv (R/I/S) [1, 22]: R
- growth inhibition of M. tuberculosis H37Rv (R/I/S) [1, 23]: I
- growth inhibition of M. tuberculosis H37Rv (R/I/S) [1, 24]: S
- growth inhibition of M. tuberculosis H37Rv (R/I/S) [1, 25]: S
- growth inhibition of M. tuberculosis H37Rv (R/I/S) [1, 26]: S
- growth inhibition of M. tuberculosis H37Rv (R/I/S) [1, 27]: S
- growth inhibition of M. tuberculosis H37Rv (R/I/S) [1, 28]: S
- growth inhibition of M. tuberculosis H37Rv (R/I/S) [1, 29]: R
- growth inhibition of M. tuberculosis H37Rv (R/I/S) [1, 30]: I
- growth inhibition of M. tuberculosis H37Rv (R/I/S) [1, 31]: I
- growth inhibition of M. tuberculosis H37Rv (R/I/S) [1, 32]: S
- growth inhibition of M. tuberculosis H37Rv (R/I/S) [1, 33]: S
- growth inhibition of M. tuberculosis H37Rv (R/I/S) [1, 34]: S
- growth inhibition of M. tuberculosis H37Rv (R/I/S) [1, 35]: S
- growth inhibition of M. tuberculosis H37Rv (R/I/S) [1, 36]: R
- growth inhibitory effect of compound alone on M. tuberculosis H37Rv [1]: do not show any growth inhibitory effect
- growth of M. tuberculosis H37Rv in the presence of sub-inhibitory ethionamide concentrations [1]: dose-dependently inhibited
- remaining activity at 0.5 µM (EthR-VP16): 28.3 ± 1.26%
- remaining activity at 1.5 µM (EthR-VP16): 27.2 ± 0.46%
- remaining activity at 3 µM (EthR-VP16): 19.9 ± 0.43%
- remaining activity at 6 µM (EthR-VP16): 13.5 ± 2.96%
- remaining activity at 15 µM (EthR-VP16): 11.8 ± 2.6%
- remaining activity at 30 µM (EthR-VP16): 11.4 ± 2.51%
- remaining activity at 60 µM (EthR-VP16): 2.82 ± 0.62%
- remaining activity at 300 µM (EthR-VP16): 0.85 ± 0.18%

SMILES: O=C(Cc1ccccc1)N1CCC(c2ccccc2)C1 (stereo not drawn) [Example 17, 2-Phenyl-1-(3-phenylpyrrolidin-1-yl)ethan-1-one]
- growth inhibition of M. tuberculosis H37Rv (R/I/S) [1, 2]: R
- growth inhibition of M. tuberculosis H37Rv (R/I/S) [1, 3]: R
- growth inhibition of M. tuberculosis H37Rv (R/I/S) [1, 4]: R
- growth inhibition of M. tuberculosis H37Rv (R/I/S) [1, 5]: R
- growth inhibition of M. tuberculosis H37Rv (R/I/S) [1, 6]: I
- growth inhibition of M. tuberculosis H37Rv (R/I/S) [1, 7]: S
- growth inhibition of M. tuberculosis H37Rv (R/I/S) [1, 8]: R
- growth inhibition of M. tuberculosis H37Rv (R/I/S) [1, 9]: R
- growth inhibition of M. tuberculosis H37Rv (R/I/S) [1, 10]: R
- growth inhibition of M. tuberculosis H37Rv (R/I/S) [1, 11]: R
- growth inhibition of M. tuberculosis H37Rv (R/I/S) [1, 12]: I
- growth inhibition of M. tuberculosis H37Rv (R/I/S) [1, 13]: S
- growth inhibition of M. tuberculosis H37Rv (R/I/S) [1, 14]: S
- growth inhibition of M. tuberculosis H37Rv (R/I/S) [1, 15]: R
- growth inhibition of M. tuberculosis H37Rv (R/I/S) [1, 16]: R
- growth inhibition of M. tuberculosis H37Rv (R/I/S) [1, 17]: R
- growth inhibition of M. tuberculosis H37Rv (R/I/S) [1, 18]: R
- growth inhibition of M. tuberculosis H37Rv (R/I/S) [1, 19]: I
- growth inhibition of M. tuberculosis H37Rv (R/I/S) [1, 20]: S
- growth inhibition of M. tuberculosis H37Rv (R/I/S) [1, 21]: S
- growth inhibition of M. tuberculosis H37Rv (R/I/S) [1, 22]: R
- growth inhibition of M. tuberculosis H37Rv (R/I/S) [1, 23]: R
- growth inhibition of M. tuberculosis H37Rv (R/I/S) [1, 24]: R
- growth inhibition of M. tuberculosis H37Rv (R/I/S) [1, 25]: I
- growth inhibition of M. tuberculosis H37Rv (R/I/S) [1, 26]: I
- growth inhibition of M. tuberculosis H37Rv (R/I/S) [1, 27]: S
- growth inhibition of M. tuberculosis H37Rv (R/I/S) [1, 28]: S
- growth inhibition of M. tuberculosis H37Rv (R/I/S) [1, 29]: R
- growth inhibition of M. tuberculosis H37Rv (R/I/S) [1, 30]: R
- growth inhibition of M. tuberculosis H37Rv (R/I/S) [1, 31]: R
- growth inhibition of M. tuberculosis H37Rv (R/I/S) [1, 32]: S
- growth inhibition of M. tuberculosis H37Rv (R/I/S) [1, 33]: S
- growth inhibition of M. tuberculosis H37Rv (R/I/S) [1, 34]: S
- growth inhibition of M. tuberculosis H37Rv (R/I/S) [1, 35]: S
- growth inhibition of M. tuberculosis H37Rv (R/I/S) [1, 36]: R
- growth inhibitory effect of compound alone on M. tuberculosis H37Rv [1]: do not show any growth inhibitory effect
- growth of M. tuberculosis H37Rv in the presence of sub-inhibitory ethionamide concentrations [1]: dose-dependently inhibited
- remaining activity at 0.5 µM (EthR-VP16): 38.5 ± 8.47%
- remaining activity at 1.5 µM (EthR-VP16): 35.5 ± 7.81%
- remaining activity at 3 µM (EthR-VP16): 22.5 ± 4.94%
- remaining activity at 6 µM (EthR-VP16): 16.3 ± 3.58%
- remaining activity at 15 µM (EthR-VP16): 14.2 ± 3.13%
- remaining activity at 30 µM (EthR-VP16): 11.5 ± 8.52%
- remaining activity at 60 µM (EthR-VP16): 1.86 ± 0.4%
- remaining activity at 300 µM (EthR-VP16): 0.83 ± 0.18%
